Assay results: patent publication US20250250559A1, “METHOD TO ANALYZE AND OPTIMIZE GENE EDITING MODULES AND DELIVERY APPROACHES” (Hoffmann-La Roche Inc., priority 2016, published 2025)
“And” between values parts separate entries of the source, which are not always exact repeats. Equal values may be shown once.

Tests used:
[1] = test system: DPH2 gene; assay: DT resistant colony count after DPH2 gene editing; format: cell-based, human; conditions: DPH2 assay (integr. vs. k.o.)
Procedure: (§1) MCF7 cells (Brooks, et al. 1973) were originally obtained from ATCC (subsequently propagated in an in-house cell bank) and maintained in RPMI […] medium supplemented with 10% FCS, 2 mM L-Glutamine and penicillin/streptomycin at 37° C. and 85% humidity. For transfection of plasmids harboring gene-editing modules, 3,000,000 cells were seeded in a 10 cm diameter culture dish and cultivated at 37° C. and humidified 5% CO2. 24 h after seeding, cells were transfected with 20 μg total DNA using JetPEI (Polyplus) according to the manufacturer's protocol but with an N/P ratio of 6:1. Transfection efficiency was determined after 24 h by flow cytometry (FACS Calibur, BD biosciences) of cells that were transfected with a modified eGFP expression plasmid (Zhang, et al. 1996).
(§2) Plasmids encoding CRISPR/Cas9 gene-editing entities (i.e. knock-out and integration systems) against Dph1 (gRNA target sequence: […] (SEQ ID NO: 01) derived from RefSeq: NM_001383) and Dph2 (gRNA target sequence: […] (SEQ ID NO: 02) derived from RefSeq: NM_001039589, NM_001384), and scrambled control (gRNA sequence: […] (SEQ ID NO: 03)) were obtained from OriGene. This system comprises one plasmid expressing a ˜100 nt gRNA under control of a U6 promoter as well as Cas9 nuclease under control of a CMV promoter and a Donor plasmid with a promoter-less GFP/PM expression cassette flanked by homologous arms to the target gene (Dph1 or Dph2). Additional Dph1 gRNA sequence variants of different sizes (OriGene) […]
(§3) MCF7 cells which have all chromosomal copies of DPH1 or DPH2 inactivated are resistant to diphtheria toxin (Stahl, et al. 2015). Thus, occurrence and frequency of toxin resistant cells/colonies upon CRISPR/Cas inflicted gene inactivation provides a measure for efficiency of inactivation of all gene copies. Therefore, MCF/cells were transfected as described in Example 1 with (i) a GFP expression plasmid as transfection control, (ii) the CRISPR/Cas9 Dph1 or Dph2 knock-out/integration system and (iii) knock-out/integration entities containing a scrambled gRNA to determine Cas9 independent integration frequencies. After determination of transfection efficiency, cells were seeded in 6-well plates. For quantification of homozygous knock-out events by DT 20000 cells were seeded and for quantification of integration events by PM or both events 40000 cells were seeded. RPMI medium was exchanged by RPMI medium containing DT or PM or both toxins 3 days after cell seeding. Exchange of medium was repeated every 2-3 days until all dead cells were removed from the plates and actively growing colonies could be detected via microscopic inspection. Thereafter (between day 12 and day 14 after start of toxin exposure), cells were washed 3 times with PBS and subsequently stained with ice cold methylene blue (0.2% in 50% EtOH). Methylene blue solution was subsequently removed and the plates were carefully washed under running water. Finally, cell colonies were counted under the microscope with a 5 mm grid foil.

[2] = test system: DPH2 gene; assay: PM resistant colony count after DPH2 gene editing; format: cell-based, human; conditions: DPH2 assay (integr. vs. k.o.); for # of PM resistant colonies (40,000 seeded cells): MCF7, individual samples A-D
Procedure: as §1, §2, §3
CRISPR/Cas module for targeted integration contains a puromycin (PM) resistance gene expression cassette without promoter to avoid transient expression. Thus, detection of integration of recombinant sequences into the genome was detected by determining sensitivity of cells towards PM. A concentration of […] PM (which quantitatively eliminates wildtype MCF7 cells) was applied to select MCF7 cells with stably integrated expression cassettes. PM-resistant colonies selected with the same procedure as described above for the DT selection and visualized and quantified (between 12 and 14 days after start of selection) in the same manner as described above for toxin resistant colonies. Number of PM resistant colonies obtained with non-target guide sequences (scrambled gRNA, FIG. 1) reflect the nonspecific integration background. […]

Substance: 20 mer SpCas9 scRNA: Scrambled control gRNA GCACTACCAGAGCTAACTCA (SEQ ID NO: 03) with SpCas9 and donor plasmid [reference compound]
- # of DT resistant colonies (40,000 seeded cells) (unheaded second sub-column: mean) ([1]; MCF7): 0
- # of DT resistant colonies (40,000 seeded cells) ([1]; MCF7, individual samples A-D): 0
- # of PM resistant colonies (40,000 seeded cells) (unheaded second sub-column: mean) ([2]; MCF7): 0.5
- # of PM resistant colonies (40,000 seeded cells) [2]: 2 and 0 (3×)
- # of PM resistant colonies (40,000 seeded cells) ([2]; listed as 20 mer scRNA): 2 and 0 (3×)
